# System: Mycobacterium bovis BCG (TMC 1028)
# Assay type: cell-based
smiles,measurement,value
Oc1ccccc1 [phenol],log reduction (phenol resistance),≈ 1.81
